From the NIST ThermoML archive (doi:10.1016/j.fluid.2012.03.002) come the findings set out here.

± gives the expanded uncertainty stated by the source.

The conditions of data set [1]: Crystal; DTA.
Data set [2] in a line: Molar enthalpy of transition or fusion. The note with it: Crystal; DSC.

For the molecule `C=CC(=O)Oc1cccc(CCCCCCCCCCCCCCC)c1` [3-pentadecylphenyl acrylate], the Normal melting temperature in data set [1] was determined as 31.50 ± 0.7 °C. Moreover, the “Molar enthalpy of transition or fusion” value in data set [2] was 54.6 ± 1.1 kJ/mol.
